Assay results taken from patent US6423855B1, “Cytoprotective compounds” (Virginia Commonwealth University, priority 1996, dated 2002).

Tests used:
[1] = system: PLA2 activity in extracts of rat bowel; assay: PLA2 activity in extracts of rat bowel; assay type: biochemical
[2] = system: ultraviolet-induced erythema; assay: protection against ultraviolet-induced erythema; assay type: in vivo, hairless albino mice; settings: 1 = Best, 4 = Worst
Method: The human skin tests were conducted on three volunteer female subjects, ages 29-32; a cream base with no added active was included as a control, while the untreated skin served as an additional basis for evaluation. Sunburn tests were performed on a total of 30 hairless albino mice.
5.Protection against ultraviolet-induced ervthema. The protection against ultraviolet-induced erythema (i.e., the burn and irritation produced after exposure to ultraviolet radiation), was measured by first irradiating 12 mice with destructive 3130 angstrom (Å) rays, applying the creams, and then evaluating the skin cells for erythema.

[3] = system: ischemic bowel; assay: PLA2 release from ischemic bowel into media; settings: 24 hrs of ischemia
Text: The addition of PX-13 reduced the enzyme release by more than 80% during 24 hrs of ischemia.

[4] = system: rat dorsal root ganglion cells; assay: cultured rat dorsal root ganglion cells exposed to snake venom PLA2; assay type: cell-based; settings: 1-3 umols/min/mg for 60 min
[5] = system: platelets; assay: platelet aggregation; assay type: cell-based; settings: 25-μM dose
Text: Applicants have also observed that PX-13 inhibited serotonin release by thrombin-stimulated platelets. This observation supports the contention that the PX compounds of the present invention may block release of inflammatory mediators in the coagulation cascade. This observation also supports the use of PX compounds to inhibit thrombin-induced platelet aggregation and to act as anti-clotting agents.

[6] = small bowel storage in perfusate solution, tissue weight; parameters: species or system rat; settings: 24 and 48 hours in the perfusate solution
Method: These drugs were also tested for their ability to enhance the preservation of tissues stored for subsequent transplantation. […] The graft was then transplanted into rats with or without intravenous (IV) infusion of 20 mg/kg PX-13 or mepacrine at the time of transplantation.

[7] = system: human blood cells; assay: preservation of whole blood (LDH and hemoglobin release); assay type: cell-based
Method: The effect of PX-13 and mepacrine on whole blood cell viability were tested as a function of time of storage.
Heparinized human blood was centrifuged at 400×g and the resulting plasma was removed and replaced with an equal volume of Dulbecco's medium. The resuspended cells were then incubated at 37° C. for 0-72 hrs. in a shaking water bath. At the indicated times, a 0.8 ml aliquot was removed and centrifuged at 400×g to sediment cells. Appearance of lactate dehydrogenase (LDH) and hemoglobin in the supernate was indicative of cell injury. PX-13 and mepacrine stabilized cells and decreased the injury as evidenced by diminished levels of LDH and hemoglobin in the supernate. This is expressed as percent protection.

[8] = target: T1, purified human disc type II, PLA2 (Homo sapiens, UniProt P14555); assay: inhibition of purified human disc type II PLA2; assay type: biochemical
T1 construct: the purified human disc type II, PLA2; from tissue; host or cells: human vertebral (herniated) disc
T1 sequence (P14555 21-144): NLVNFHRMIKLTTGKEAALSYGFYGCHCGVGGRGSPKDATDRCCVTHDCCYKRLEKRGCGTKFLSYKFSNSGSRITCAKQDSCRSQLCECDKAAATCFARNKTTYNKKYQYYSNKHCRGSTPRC
Method: Both PX-13 and PX-18 inhibit the purified human disc type II, PLA2. PLA2 activity was measured as described in Franson et al., Prostaglandins, Leukotrienes and Essential Fatty Acids, 43:63-70, 1991, which is herein incorporated by reference in its entirety.

[9] = peroxidation (malondialdehyde formation) of homogenized rat bowel
Method: These drugs were also tested for their ability to enhance the preservation of tissues stored for subsequent transplantation. The small bowel was removed from rats, washed free of luminal contents and the tissue stored in University of Wisconsin (UW) preservative media ±40 uM PX-13 or mepacrine for 48 hrs. The graft was then transplanted into rats with or without intravenous (IV) infusion of 20 mg/kg PX-13 or mepacrine at the time of transplantation. Upon transplantation, the bowel is immediately injured as evidenced by tissue darkening within two minutes. […] Both PX-13 and mepacrine inhibit the peroxidation (malondialdehyde formation) of homogenized rat bowel, an indication that the membrane-stabilizing, PLA2-inhibitors, also have anti-oxidant activity.

[10] = system: reflex sympathetic dystrophy (RSD); assay: topical cream in patients with reflex sympathetic dystrophy; assay type: in vivo, human
Method: A patient presents with severe RSD characterized by persistent pain and limitation of movement at the wrist joint. […] Another patient presents with a two year history of RSD in the knee joint. This patient previously received arthroscopic evaluations. This patient also had limited range of motion and became addicted to narcotics in an attempt to reduce pain. […] The reduction in pain is immediate and the increased range of motion occurs within 10-20 minutes. This patient, who had been unemployed for an extended period, eliminated intake of narcotics and returned to work. A third patient presented with RSD of the foot and ankle. This patient had no eversion or inversion of the foot.

[11] = therapeutic index LD50/ED50
[12] = system: epidermal layer; assay: transepidermal water loss; assay type: in vivo, human
Method: Two PX compounds PX-11 and PX-13 were evaluated in a cream formulation prepared under GMP. The chemicals were formulated into a bland cream and evaluated in the following human or mouse skin tests: (1) occluded patch test for irritation; (2) cell turnover rate; (3) transepidermal water loss; (4) skin moisturization; and (5) reduction in erythema after induced sunburn. The human skin tests were conducted on three volunteer female subjects, ages 29-32; a cream base with no added active was included as a control, while the untreated skin served as an additional basis for evaluation. Sunburn tests were performed on a total of 30 hairless albino mice. 3. Transepidermal water loss. This parameter was measured by affixing a flow cell on the forearm site, applying the cream, waiting 20 minutes, then flushing the volume with nitrogen and noting the moisture content of the effluent gases.

[13] = system: rat dorsal root ganglion cells; assay: cultured rat dorsal root ganglion cells exposed to human disc PLA2; assay type: cell-based
Method: Primary cultures of rat dorsal root ganglion cells were used. Cells were washed 3-times with media to remove serum. Then, PX-13 (20 uM) in HEPES buffer or a buffer control was applied to the cells. After 10 min of incubation, purified human disc PLA2 (activity 1 umol/min) was added and the cells were incubated for an additional 60-90 min. Cells were then observed, fixed, and photographed 1.5 hrs after addition of PLA2.

[14] = patient 2, knee, cream combined with sympathetic blockade

CCCCCCCC/C=C\CCCCCCCC(=O)OCC(COC(=O)CCCCCCC/C=C\CCCCCCCC)(COC(=O)CCCCCCC/C=C\CCCCCCCC)NCCS(=O)(=O)O [PX-13, 2-[Tris(oleoyloxymethyl)methylamino]-1-ethanesulfonic acid]
effectiveness as PLA2 inhibitor relative to mepacrine [1]: more than 2 log units | inhibition of PLA2 activity [1]: inhibited | Post-Radiation Erythema Ranking Mean ([2]; Mean): 4.7 | Post-Radiation Erythema Ranking ([2]; Subject 3): 4 | reduction of PLA2 enzyme release [3]: more than 80% | protection against toxicity of purified snake venom PLA2 [4]: protected | platelet aggregation [5]: inhibited | weight of the tissues after storage [6]: reduced weight | Percent Protection Hemoglobin ([7]; 20 uM, 48 hr): 55% | Percent Protection LDH ([7]; 20 uM, 48 hr, 37° C.): 22% | Percent Protection Hemoglobin ([7]; 20 uM, 72 hr): 25% | Percent Protection LDH ([7]; 20 uM, 72 hr): 15% | Percent Protection Hemoglobin ([7]; 80 uM, 48 hr): 72% | Percent Protection LDH ([7]; 80 uM, 48 hr): 39% | Percent Protection Hemoglobin ([7]; 80 uM, 72 hr): 54% | Percent Protection LDH ([7]; 80 uM, 72 hr): 41% | Percent Protection Hemoglobin ([7]; 160 uM, 48 hr): 77% | Percent Protection LDH ([7]; 160 uM, 48 hr): 78% | Percent Protection Hemoglobin ([7]; 160 uM, 72 hr): 80% | Percent Protection LDH ([7]; 160 uM, 72 hr): 72% | IC50 [8]: 2.5 µM | peroxidation (malondialdehyde formation) [9]: inhibit | pain relief ([10]; patient 1, wrist, about 4% in cream of Example 15, topical): immediate pain relief | pain and range of motion [10, 14]: decreases the patient's report of pain and provides a full range of motion | time to increased range of motion [10, 14]: 10 to 20 min | time to full eversion and inversion ([10]; patient 3, foot and ankle, about 4% cream): ≤ 20 min | pain relief ([10]; patient 3, foot and ankle, about 4% in cream vehicle): immediate and complete pain relief | therapeutic index (LD50/ED50) [11]: a large positive number | % Change in Transepidermal Water Loss ([12]; forearm, 20 minutes after applying cream): −8.5% | effect on water loss from the epidermal layer ([12]; in vivo): functioned as an occluding moisturizer | cell morphology, compound alone ([13]; 20 uM alone): indistinguishable from control cultures | cell morphology, compound + human disc PLA2 ([13]; 20 uM, PLA2 activity 1 umol/min, 60-90 min): indistinguishable from control cultures
